According to ChEMBL document CHEMBL1123163, “Absolute configuration of (-)-5-benzoyl-1,2-dihydro-3H-pyrrolo[1,2-alpha]pyrrole-1-carboxylic acid, the active enantiomer of ketorolac” (1986):

How the values were obtained:
[1] = test system: Rattus norvegicus; assay: Antiinflammatory activity using carrageenan rat paw edema assay along with 15 mg/kg of phenylbutazone; type: functional
[2] = test system: Mus musculus; assay: Analgesic activity using mouse phenylquinone writhing assay along with 70 mg/kg of aspirin; type: functional

| Structure (SMILES) | ED50 [1] [mg/kg] | ED50 [2] [mg/kg] |
| --- | --- | --- |
| O=C(c1ccccc1)C1CCC2[C@@H](C(=O)O)CCN12 (stereo partly specified) | 170 | 699 |
| O=C(c1ccccc1)C1CCC2[C@H](C(=O)O)CCN12 (stereo partly specified) | 3 | < 3 |
| O=C(O)C1CCN2C(C(=O)c3ccccc3)CCC12 (racemic) | 96 | 399 |
